Consider three compounds from US20010051602A1, “Methods for increasing ApoE levels for the treatment of neurodegenerative disease” (priority 1997, published 2001).

Test [1] relates to ApoE. Kind of test: astrocyte screening assay: secreted ApoE in rat type 1 astrocyte cultures. Conditions: for levels of extracellular (secreted) ApoE: astrocyte screening assay. Format: cell-based. The text has this:
Other culture systems which may be used include human culture systems of primary cells derived from human tissue or immortalized cell lines of nerve tissue origin such as the human astrocyte cell line, AsCH-7 (Bobryshev et al., 1995). In addition, novel cell lines from patients with various apoE genotypes may be used, as well as cell lines from patients suffering or predisposed to suffer from any of the neurodegenerative diseases described herein. Adult spinal cord from post-mortem patients with any of the above diseases may be used as a source for deriving cell lines of nerve tissue origin. One method of immortalizing cells from these patients is to infect primary tissue with a replication-deficient retrovirus containing DNA sequences encoding the SV40 large T antigen (Whittemore et al., 1994). Another method is to derive immortal human-human hybrid cell lines that express phenotypic characteristics of primary oligodendrocytes or astrocytes by fuising a 6-thioguanine-resistant mutant of the human rhabdomyosarcoma RD cell line with adult human nerve tissue by a lectin-enhanced polyethylene glycol procedure (McLaurin et al., 1995). Other methods for immortalizing cells derived from primary human nerve tissue could include the use of chemical carcinogens or radiation. […] Antibodies to ApoE allow for the design of a high throughput assay using an immunoassay detection method.
(§1) To verify this working hypothesis, we have examined the effect of various concentration of tacrine on ApoE synthesis and secretion in brain cells in culture. FIG. 5 illustrates the effect of tacrine on ApoE secretion in rat type 1 astrocyte cultures exposed (for 8 hours) to physiological and pharmacological concentrations of the drug. […] Experimental methods used to monitor ApoE levels are described in Bertrand et al., Mol. Brain Res. 33:174-178 (1995).

The subject of the next test is Alzheimer's disease. Conditions: Alzheimer's patients treated for very long periods; cited from earlier work.
Test [2] relates to ApoE. Conditions: AD subjects treated with tacrine for several months, N = 4; untreated Alzheimer 0.36. On the procedure: as §1

Regarding `COc1cc2c(cc1OC)C(=O)C(CC1CCN(Cc3ccccc3)CC1)C2` (stereo not drawn) [donepezil], in the test with ApoE [1], the “levels of extracellular (secreted) ApoE” value is reported as “no effect”.
As for `CCCCCCCNC(=O)Oc1ccc2c(c1)[C@]1(C)CCN(C)[C@@H]1N2C` [heptylphysostigmine], the “levels of extracellular (secreted) ApoE” value in the test with ApoE [1] is on record as “increase”.
Turning to `Nc1c2c(nc3ccccc13)CCCC2` [tacrine], the “levels of extracellular (secreted) ApoE” value in the test with ApoE [1] is reported as “increase”. Besides, the “ApoE secretion in astrocytes” value in the test with ApoE [1] (rat type 1 astrocyte cultures exposed for 8 hours, 2 uM, concentration typically found in CSF of treated AD patients) is “increases”. Further, the delay of institutionalization result in the test on Alzheimer's disease is recorded as “more than 1.5 years”. Also, the “ApoE Concentration In the Cerebrospinal Fluid (CSF), Mean” value with ApoE [2] turned out to be 0.41 mg/dL.
